Measured values: patent publication US7122621B2, “Anti-cellular proliferative disorder polypeptide” (Academia Sinica, priority 2003, dated 2006)
Where two headings read alike, the source gives them in different places. No end group written: not given here.

Assays:
[1] = system: HL-60; assay: cells
Experimental: (§1) To evaluate the cell lysis activity of CHM1, a cytotoxcity assay was conducted according to the method described in Chen H. et al., Biochim. Biophys. Acta 1336:171–179, 1997 and Wang W. et al., J. Biol. Chem. 273:27438–27448, 1998.
(§2) Anchorage-independent normal cells such as red blood cells and lymphoblast RPMI 7666 cells, and leukemia cell lines such as CCRF-CEM, HL-60, and Jurkat, K-562 cells were respectively maintained in RMPI-1640 culture media containing 10% FBS, 100 unit/ml penicillin G, and 100 μg/ml streptomycin. Cells of each type were seeded at 1×10^5/ml into a 25 cm^2 flask (Falcon) and cultured at 37° C. in the presence of 5% CO2 for two days. The cells were then centrifuged at 1000 rpm for 5 min. The resultant pellet was washed twice with the just-mentioned culture medium, resuspended in an RMPI-1640 medium containing 0.5% FBS, and cultured overnight.
(§3) Each of the above-prepared cell suspensions was adjusted so that it contained 1×10^5 cells/ml before being transferred into 9 wells of a 96-well plate (90 μl/well). The suspension in each well was mixed with 10 ul of a culture medium containing CHM1 freshly prepared from a […] stock solution so that the final concentrations in the 9 wells were 0, 1, 5, 10, 15, 20, 30, 50, and 100 μM, respectively. Triplicates for each well were set up. After incubating for 24 hours, a microtetrazolium (MTT)-based colorimetric assay was conducted. It is known that MTT can be metabolized by mitochondrial dehydrogenases in metabolically active cells to form a formazan salt, which has a strong absorption at 570 nm. To conduct the assay, 20 μl of a solution containing 5 mg/ml MTT (Boehringer Mannheim) was added to each of the wells mentioned above and a well containing 100 μl of PBS. The latter was used as a blank control. After incubating for 4 hours, 100 μl of a solution containing 10% SDS and […] HCl was added to each well. The plate was then incubated at 37° C. overnight. The absorbance at 570 nm of the mixture in each well was measured using a Bio-Rad model 450 microtiter plate reader. An average cell survival rate of each triplicate was determined based on the corresponding ΔA570nm relative to that of the well containing 0 μM CHM1. The survival rates thus obtained were plotted against corresponding CHM1 concentrations to form a cell survival curve and derive the IC50. Using the same procedure, also determined were the IC50s of other lytic polypeptides, such as cecropin B (CB), cecropin B1 (CB1), Melittin, and Magainin II, and cancer chemotherapeutic agents, such as doxorubicin (DOX), vincristine (VCR), methotrexate (MTX), 5-fluorouracil (5-Fu), cytarabine (Ara-C), 6-mercaptopurine (6-MP). At least three independent experiments were conducted for each of the polypeptides and agents.

[2] = system: lymphoblast RPMI 7666 cells; assay: cells
Experimental: as §1, §2, §3

[3] = system: CCRF-SB; assay: MTT-based cytotoxicity assay, CCRF-SB cancer cells; format: cell-based; conditions: Homo sapiens, Table 2, 24 hours incubation
Experimental: as §1, §3

[4] = system: CCRF-CEM; assay: cells
Experimental: as §1, §2, §3

[5] = system: Jurkat; assay: cells
Experimental: as §1, §2, §3

[6] = system: K-562; assay: cells
Experimental: as §1, §2, §3

[7] = system: stomach carcinoma (AGS) cells; assay: cells
Experimental: as §1
(§4) Anchorage-dependent cells such as tissue cells (3T3 cells) or stomach carcinoma (AGS) cells were seeded at 1×10^4 cells/ml into a 25-cm^2 flask containing D-MEM medium supplemented with 10% FBS, 100 unit/ml penicillin G, and 100 μg/ml streptomycin. Cells were grown to about 80% confluence before being trypsinized. The trypsinized cells were resuspended in a D-MEM medium containing 0.5% FBS.
as §3

[8] = system: tissue cells (3T3 cells); assay: cells
Experimental: as §1, §4, §3

[9] = system: red blood cells (RBCs); assay: Hemolysis of red blood cells; format: cell-based; conditions: 200 μM
Experimental: as §2
Effects of CHM1, melittin, CB, CB1 and doxorubicin on red blood cells (RBCs) were also examined. […] In fact, about 15% of RBCs lysed after being treated with CHM1 (200 μM). In contrast, about 100%, 57%, 55%, and 20% of RBCs lysed after being treated by melittin, CB, CB1, and doxorubicin, respectively, at the same concentration.

[10] = Homo sapiens, HL-60, 24 h, read-out: IC50, Cancer Cells HL-60
[11] = 24 h, read-out: IC50, Lymphoblasts RPMI 7666
[12] = read-out: IC50, Leukemia cells CCRF-CEM, 24 hours incubation, MTT
[13] = read-out: IC50, Leukemia cells HL-60, Table 1, 24 hours incubation, MTT
[14] = read-out: IC50, Leukemia cells Jurkat, 24 hours incubation, MTT
[15] = read-out: IC50, Leukemia cells K-562, 24 hours incubation, MTT
[16] = read-out: IC50, Stomach Carcinoma AGS, 24 hours incubation, MTT
[17] = read-out: IC50, Normal cells Tissue cells (3T3), 24 hours incubation, MTT
[18] = read-out: IC50, Normal cells Lymphoblast (RPMI7666), Table 1, 24 hours incubation, MTT

Compound: O=c1[nH]cc(F)c(=O)[nH]1 [5-FU, 5-fluorouracil]
- IC50 [1, 10]: 7.6 ± 10.5 µM
- IC50 [2, 11]: 1.15 ± 0.4 µM
- IC50 [3]: 123 ± 30.7 µM

Compound: Sc1ncnc2nc[nH]c12 [6-MP, 6-mercaptopurine]
- IC50 [1, 10]: 0.43 ± 0.05 µM
- IC50 [2, 11]: 1.24 ± 0.3 µM
- IC50 [3]: 0.44 ± 0.01 µM

Compound: Nc1ccn([C@@H]2O[C@H](CO)[C@@H](O)[C@@H]2O)c(=O)n1 [Ara-C, cytarabine]
- IC50 [1, 10]: 0.08 ± 0.02 µM
- IC50 [2, 11]: 0.3 ± 0.1 µM
- IC50 [3]: 0.1 ± 0.01 µM

Compound: COc1cccc2c1C(=O)c1c(O)c3c(c(O)c1C2=O)C[C@@](O)(C(=O)CO)C[C@@H]3O[C@H]1C[C@H](N)[C@H](O)[C@H](C)O1 [Doxorubicin, doxorubicin]
- IC50 ([4]; Homo sapiens, CCRF-CEM, 24 h, read-out: IC50, Leukemia cells CCRF-CEM): 0.4 ± 0.1 µM
- IC50 [1, 10]: 0.19 ± 0.01 µM
- IC50 ([1]; Homo sapiens, HL-60, 24 h, read-out: IC50, Leukemia cells HL-60): 0.19 ± 0.01 µM
- IC50 ([5]; Homo sapiens, Jurkat, 24 h, read-out: IC50, Leukemia cells Jurkat): 0.4 ± 0.1 µM
- IC50 ([6]; Homo sapiens, K562, 24 h, read-out: IC50, Leukemia cells K-562): > 10 µM
- IC50 [2, 11]: 1.86 ± 0.1 µM
- IC50 ([2]; 24 h, read-out: IC50, Normal cells Lymphoblast (RPMI7666)): 1.9 ± 0.1 µM
- IC50 ([7]; Homo sapiens, AGS, 24 h, read-out: IC50, Stomach Carcinoma AGS): 4.1 ± 0.4 µM
- IC50 ([8]; Mus musculus, NIH3T3, 24 h, read-out: IC50, Normal cells Tissue cells (3T3)): 2 ± 0.7 µM
- IC50 [3]: 0.46 ± 0.07 µM
- RBCs lysed [9]: ~20%

Compound: CN(Cc1cnc2nc(N)nc(N)c2n1)c1ccc(C(=O)N[C@@H](CCC(=O)O)C(=O)O)cc1 [MTX, methotrexate]
- IC50 [1, 10]: 0.018 ± 0.01 µM
- IC50 [2, 11]: 0.132 ± 0.04 µM
- IC50 [3]: 0.017 ± 0.01 µM

Compound: CC[C@H](C)[C@H](NC(=O)CN)C(=O)NCC(=O)N[C@@H](C)C(=O)N[C@H](C(=O)N[C@@H](CC(C)C)C(=O)N[C@@H](CCCCN)C(=O)N[C@H](C(=O)N[C@@H](CC(C)C)C(=O)N[C@H](C(=O)N[C@H](C(=O)NCC(=O)N[C@@H](CC(C)C)C(=O)N1CCC[C@H]1C(=O)N[C@@H](C)C(=O)N[C@@H](CC(C)C)C(=O)N[C@H](C(=O)N[C@@H](CO)C(=O)N[C@@H](Cc1c[nH]c2ccccc12)C(=O)N[C@H](C(=O)N[C@@H](CCCCN)C(=O)N[C@@H](CCCNC(=N)N)C(=O)N[C@@H](CCCCN)C(=O)N[C@@H](CCCNC(=N)N)C(=O)N[C@@H](CCC(N)=O)C(=O)N[C@@H](CCC(N)=O)C(N)=O)[C@@H](C)CC)[C@@H](C)CC)[C@@H](C)O)[C@@H](C)O)C(C)C)C(C)C [Melittin]
- IC50 [4, 12]: 0.5 ± 0.02 µM
- IC50 [1, 13]: 0.8 ± 0.02 µM
- IC50 [5, 14]: 2.5 ± 0.1 µM
- IC50 [6, 15]: 3.2 ± 0.3 µM
- IC50 [7, 16]: 0.6 ± 0.02 µM
- IC50 [8, 17]: 6 ± 0.03 µM
- RBCs lysed [9]: about 100%

Compound: CC[C@]1(O)C[C@H]2CN(CCc3c([nH]c4ccccc34)[C@@](C(=O)OC)(c3cc4c(cc3OC)N(C=O)[C@H]3[C@@](O)(C(=O)OC)[C@H](OC(C)=O)[C@]5(CC)C=CCN6CC[C@]43[C@@H]65)C2)C1 [VCR, vincristine]
- IC50 [1, 10]: 0.034 ± 0.01 µM
- IC50 [2, 11]: 0.021 µM
- IC50 [3]: 0.015 ± 0.01 µM

Compound: GIGKFLHSAKKFGKAFVGEIMNS [Magainin II]
- IC50 ([4]; 24 h): 32.9 ± 0.9 µM
- IC50 ([1]; 24 h): 38.3 ± 3.2 µM
- IC50 ([5]; 24 h): 44 ± 2.4 µM
- IC50 ([6]; 24 h): > 50 µM
- IC50 ([7]; 24 h): 28.7 ± 5 µM
- IC50 ([8]; 24 h): > 50 µM

Compound: KWKVFKKIEKKWKVFKKIEKAGPKWKVFKKIEK [CHM1]
- IC50 ([4]; 24 h): 4.4 ± 0.3 µM
- IC50 ([1]; 24 h): 6.7 ± 1.1 µM
- IC50 ([5]; 24 h): 10.1 ± 1.2 µM
- IC50 ([6]; 24 h): 8.5 ± 0.6 µM
- IC50 [2, 18]: > 100 µM
- effect on normal lymphoblasts (in words) ([2]; summary of Table 1): little effect
- IC50 ([7]; 24 h): 5.6 ± 0.5 µM
- IC50 ([8]; 24 h): > 50 µM
- effect on normal tissue cells (in words) ([8]; summary of Table 1): little effect

Compound: KWKVFKKIEKMGRNIRNGIVKAGPAIAVLGEAKAL-NH2 [CB, cecropin B]
- IC50 ([4]; 24 h): 11.7 ± 1.3 µM
- IC50 ([1]; 24 h): 18.5 ± 1.7 µM
- IC50 ([5]; 24 h): 31.5 ± 3 µM
- IC50 ([6]; 24 h): > 50 µM
- IC50 [2, 18]: > 200 µM
- IC50 ([7]; 24 h): > 50 µM
- IC50 ([8]; 24 h): > 50 µM

Compound: cecropin B1 [CB1]
- IC50 [4, 12]: 4.7 ± 0.2 µM
- IC50 [1, 13]: 8.1 ± 0.9 µM
- IC50 [5, 14]: 4 ± 0.4 µM
- IC50 [6, 15]: 15.6 ± 1.8 µM
- IC50 [2, 18]: > 200 µM
- IC50 [7, 16]: 7.1 ± 1.3 µM
- IC50 [8, 17]: > 50 µM
